Test results reported in patent US7217724B2, “Indole, indazole, and benzazole derivative” (Dainippon Sumitomo Pharma Co., Ltd., priority 2002, dated 2007).
pEC50: −log10 of the molar value. Counter-ions that a name gives are not always drawn.

Tests used:
human β1-receptor = biological target: T1, human β1-receptor (Homo sapiens, UniProt P08588); assay: Human β1-receptor stimulation test (cAMP production in THP-1 cells); type: cell-based
T1 construct: THP-1 cell line, i.e., cells expressing both human β2- and β1-receptors; host or cells: THP-1 cells
T1 sequence (P08588 whole entry): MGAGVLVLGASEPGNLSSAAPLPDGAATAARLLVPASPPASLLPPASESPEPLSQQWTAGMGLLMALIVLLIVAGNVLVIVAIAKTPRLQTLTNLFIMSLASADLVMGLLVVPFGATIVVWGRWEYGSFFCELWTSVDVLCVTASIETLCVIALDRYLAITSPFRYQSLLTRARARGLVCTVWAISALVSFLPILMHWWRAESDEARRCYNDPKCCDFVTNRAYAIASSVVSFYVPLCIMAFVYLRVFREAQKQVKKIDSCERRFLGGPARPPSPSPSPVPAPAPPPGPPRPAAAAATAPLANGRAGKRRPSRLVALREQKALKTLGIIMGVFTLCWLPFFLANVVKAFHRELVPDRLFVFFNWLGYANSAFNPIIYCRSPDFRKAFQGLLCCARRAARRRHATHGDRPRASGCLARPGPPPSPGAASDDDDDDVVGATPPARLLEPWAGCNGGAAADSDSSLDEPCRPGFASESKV
Excerpt: (§1) Human β3, β2 and β1-receptor stimulation test
(§2) Human β3-receptor-stimulating activity was studied using SK-N-MC cell line, i.e., cells permanently expressing human β3- and human β1-receptors (SK-N-MC cells, purchased from Dainippon Pharmaceutical Co., Ltd.), and human β2- and β1-receptor-stimulating activities were studied using THP-1 cell line, i.e., cells expressing both human β2- and β1-receptors (THP-1 cells, purchased Dainippon Pharmaceutical Co., Ltd.).
(§3) The β3-receptor stimulating activity of a test compound (10^−9 to 10^−5 M) was studied using as an index cyclic AMP (hereinafter, referred to as cAMP) producing activity of SK-N-MC cells at almost confluent in the presence of a β1-receptor inhibitor ((±)-2-hydroxy-5-(2-((2-hydroxy-3-(4-(1-methyl-4-(trifluoromethyl)-1H-imidazol-2-yl)phenoxy)propyl)-amino)ethoxy)benzamide methanesulfonate, CGP-20712A (Sigma-Aldrich), 10^−6M), wherein said SK-N-MC cells were seeded into a 96-well plate at a cell density of 2×10^4 cells/well and had been cultured for 3 days. […] The cAMP production in the cells was measured by ELISA method. […]

β1-adrenoceptor = assay: Autonomic beat of the excised right atrium specimen (positive chronotropic action, Magnus method); parameters: species or system Hartley guinea pig; details: method of Experiment 2
Description: Effect of a medicament on autonomic beat of the excised right atrium specimen based on β1-adrenoceptor-stimulating activity (study on positive chronotropic action)
The heart of Hartley guinea pig was excised, and a right atrium specimen was prepared therefrom and the experiment was carried out thereon according to Magnus method. The specimen was hung at 34° C. in Krebs-Henseleit solution to which a mixed gas of 95% oxygen and 5% carbon dioxide was aerated, and loaded so that the maximum resting tension became about 0.5 g. The autonomic beat of the right atrium was detected through a pressure transducer, and the tension and the beat were continuously recorded onto a linear recorder. A medicament was cumulatively added every time the beat became plateau. […]
In order to show the divergence between β3-stimulating activity/β1-stimulating activity in the experimental results, the EC50 value of positive chronotropic action of the test compound of Examples obtained in Experiment 2 was divided by the EC50 value of human β3-stimulating activity of said compound obtained in Experiment 1, which is the main activity in Experiment 1. The results are expressed by relative values, which are calculated by counting the value of the reference compound (AJ 9677) as 1.

human β2-receptor = biological target: T2, human β2-receptor (Homo sapiens, UniProt P07550); assay: Human β2-receptor stimulation test (cAMP production in THP-1 cells); type: cell-based; details: with CGP-20712A, activity not observed up to a maximum concentration, read-out: β2-stimulating activity
T2 construct: THP-1 cell line, i.e., cells expressing both human β2- and β1-receptors; host or cells: THP-1 cells
T2 sequence (P07550 whole entry): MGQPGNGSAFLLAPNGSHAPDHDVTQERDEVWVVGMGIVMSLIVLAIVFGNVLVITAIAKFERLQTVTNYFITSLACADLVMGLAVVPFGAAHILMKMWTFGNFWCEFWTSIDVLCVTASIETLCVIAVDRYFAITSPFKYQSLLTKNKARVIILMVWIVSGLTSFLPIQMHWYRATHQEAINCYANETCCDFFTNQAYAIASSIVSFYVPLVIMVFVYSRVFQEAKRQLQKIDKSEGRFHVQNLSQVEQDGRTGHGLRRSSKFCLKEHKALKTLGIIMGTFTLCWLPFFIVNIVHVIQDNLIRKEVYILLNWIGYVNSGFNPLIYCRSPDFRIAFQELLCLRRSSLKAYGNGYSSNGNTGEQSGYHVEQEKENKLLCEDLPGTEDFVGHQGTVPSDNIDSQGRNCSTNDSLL
Excerpt: as §1, §2, §3

human β3-receptor = biological target: T3, human β3-receptor (Homo sapiens, UniProt P13945); assay: Human β3-receptor stimulation test (cAMP production in SK-N-MC cells); type: cell-based; details: in the presence of β1-receptor inhibitor CGP-20712A 10^−6 M, read-out: EC50 value of β3-stimulating activity
T3 construct: SK-N-MC cell line, i.e., cells permanently expressing human β3- and human β1-receptors; host or cells: SK-N-MC cells
T3 sequence (P13945 whole entry): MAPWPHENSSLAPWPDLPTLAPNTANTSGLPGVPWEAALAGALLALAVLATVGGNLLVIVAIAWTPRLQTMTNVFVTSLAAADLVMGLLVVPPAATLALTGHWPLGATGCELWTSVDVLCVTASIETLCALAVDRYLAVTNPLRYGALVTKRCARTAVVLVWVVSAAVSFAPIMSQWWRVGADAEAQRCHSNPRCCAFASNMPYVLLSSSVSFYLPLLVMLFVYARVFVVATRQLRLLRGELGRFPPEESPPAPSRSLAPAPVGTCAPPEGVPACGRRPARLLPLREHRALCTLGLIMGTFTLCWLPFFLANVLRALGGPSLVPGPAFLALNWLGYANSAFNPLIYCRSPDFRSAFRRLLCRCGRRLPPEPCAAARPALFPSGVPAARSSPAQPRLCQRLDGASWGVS
Excerpt: as §1, §2, §3

SMILES	β1- and/or β2-adrenoceptor-stimulating activities in the conventional evaluation system (human β1-receptor; cells, method of Experiment 1 (β1 and β2, THP-1 cells))	β1- and/or β2-adrenoceptor-stimulating activities in the evaluation system using tissues (β1-adrenoceptor)	pEC50 (human β1-receptor; THP-1 cells, cAMP production, with ICI-118551, activity not observed up to a maximum concentration, read-out: β1-stimulating activity)	pEC50 (human β2-receptor)	pEC50 (human β3-receptor)
C[C@H](Cc1c[nH]c2c(OCC(=O)O)cccc12)NC[C@H](O)c1cccc(Cl)c1 [AJ 9677, reference compound]	does not exhibit β1- and/or β2-adrenoceptor-stimulating activities	exhibits β1- and/or β2-adrenoceptor-stimulating activities			
C[C@H](Cc1c[nH]c2c(OCC(=O)O)cccc12)NC[C@H](O)c1cccnc1 [Example 2, {3-[(2 R)-2-((2R)-2-Hydroxy-2-pyridin-3-ylethylamino)propyl]-1 H-indol-7-yloxy}acetic acid.2 trifluoroacetate]			< 5.00	< 5.00	7.32
